In patent US20230233569A1 (Revolution Medicines, Inc., priority 2020, published 2023):

How the values were obtained:
Capan-1 (K-Ras G12V) = test: CellTiter-Glo cell viability assay, 5-day treatment; format: cell-based; details: Homo sapiens, CAPAN-1, 120 h, 5-day treatment; read-out: Capan-1 Cell Viability assay data (K-Ras G12V, IC50)
Outline: (§1)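 Viability is read as luminescence on day 5 after direct compound addition to plated cells, following about 30 minutes' room-temperature equilibration. Each signal is scaled to mean DMSO as 100%.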

NCI-H358 (K-Ras G12C) = test: as above; format: cell-based; details: Homo sapiens, NCI-H358, 120 h, 5-day treatment; read-out: H358 Cell Viability assay data (K-Ras G12C, IC50)
Outline: as §1

KRAS G12C = KRAS G12C (Homo sapiens, UniProt P01116+P62937, G12C); test: Disruption of BRAF RBD interaction with Ras (FRET / MOA assay, with Cyclophilin A); format: biochemical; details: read-out: KRAS G12C FRET data, IC50
Sequence of KRAS G12C (P01116 1-169 isoform P01116-2 G12C): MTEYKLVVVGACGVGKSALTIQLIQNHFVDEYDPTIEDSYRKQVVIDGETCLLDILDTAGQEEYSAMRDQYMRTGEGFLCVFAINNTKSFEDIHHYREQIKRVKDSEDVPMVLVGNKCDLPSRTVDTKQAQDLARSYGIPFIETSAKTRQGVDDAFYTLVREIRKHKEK
Sequence of KRAS G12C (P62937 whole entry): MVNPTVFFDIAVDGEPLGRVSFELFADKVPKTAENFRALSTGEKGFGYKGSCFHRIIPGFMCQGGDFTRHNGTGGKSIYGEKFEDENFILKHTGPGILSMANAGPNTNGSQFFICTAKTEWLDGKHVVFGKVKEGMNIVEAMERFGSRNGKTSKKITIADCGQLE
Outline: (§2)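 TR-FRET readout: a drop in ratio relative to DMSO wells marks disruption of the K-Ras:BRAF RBD complex via compound-induced K-Ras–Cyclophilin A ternary complex. Dosing used ten 3-fold steps from 30 μM final, 3 h at 25 °C, then Eu-anti-His 10 nM plus APC-anti-GST 50 nM for another 1.5 h. Values are IC50s.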

KRAS G12D = KRAS G12D (Homo sapiens, UniProt P01116+P62937, G12D); test: as above; format: biochemical; details: read-out: KRAS G12D FRET data, IC50
Sequence of KRAS G12D (P01116 1-169 isoform P01116-2 G12D limits assumed): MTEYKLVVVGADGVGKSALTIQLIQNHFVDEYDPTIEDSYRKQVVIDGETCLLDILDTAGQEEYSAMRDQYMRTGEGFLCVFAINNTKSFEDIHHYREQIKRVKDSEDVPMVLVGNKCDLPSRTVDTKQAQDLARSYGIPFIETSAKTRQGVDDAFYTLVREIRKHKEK
Sequence of KRAS G12D (P62937 whole entry): as the sequence (P62937 whole entry) above
Outline: as §2

KRAS G12S = KRAS G12S (Homo sapiens, UniProt P01116+P62937, G12S); test: as above; format: biochemical; details: read-out: KRAS G12S FRET data, IC50
Sequence of KRAS G12S (P01116 1-169 isoform P01116-2 G12S limits assumed): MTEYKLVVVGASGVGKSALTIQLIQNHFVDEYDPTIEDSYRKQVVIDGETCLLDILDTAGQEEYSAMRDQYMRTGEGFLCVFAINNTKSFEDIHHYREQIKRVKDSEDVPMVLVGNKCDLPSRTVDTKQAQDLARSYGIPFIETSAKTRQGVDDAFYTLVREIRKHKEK
Sequence of KRAS G12S (P62937 whole entry): as the sequence (P62937 whole entry) above
Outline: as §2

KRAS G12V = KRAS G12V (Homo sapiens, UniProt P01116+P62937, G12V); test: as above; format: biochemical; details: KRAS G12V; read-out: KRAS G12V FRET data IC50
Sequence of KRAS G12V (P01116 1-169 isoform P01116-2 G12V limits assumed): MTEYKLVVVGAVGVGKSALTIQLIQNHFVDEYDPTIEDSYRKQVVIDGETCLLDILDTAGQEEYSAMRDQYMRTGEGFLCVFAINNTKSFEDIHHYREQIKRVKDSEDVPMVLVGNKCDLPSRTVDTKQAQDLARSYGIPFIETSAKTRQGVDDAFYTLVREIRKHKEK
Sequence of KRAS G12V (P62937 whole entry): as the sequence (P62937 whole entry) above
Outline: as §2

KRAS G13C = KRAS G13C (Homo sapiens, UniProt P01116+P62937, G13C); test: as above; format: biochemical; details: read-out: KRAS G13C FRET data, IC50
Sequence of KRAS G13C (P01116 1-169 isoform P01116-2 G13C): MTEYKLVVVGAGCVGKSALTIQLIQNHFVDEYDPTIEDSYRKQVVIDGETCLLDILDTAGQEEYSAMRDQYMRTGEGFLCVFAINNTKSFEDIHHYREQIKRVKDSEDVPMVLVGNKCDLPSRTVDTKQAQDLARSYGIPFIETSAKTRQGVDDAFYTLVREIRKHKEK
Sequence of KRAS G13C (P62937 whole entry): as the sequence (P62937 whole entry) above
Outline: as §2

KRAS G13D = KRAS G13D (Homo sapiens, UniProt P01116+P62937, G13D); test: as above; format: biochemical; details: KRAS G13D; read-out: KRAS G13D FRET data IC50
Sequence of KRAS G13D (P01116 1-169 isoform P01116-2 G13D limits assumed): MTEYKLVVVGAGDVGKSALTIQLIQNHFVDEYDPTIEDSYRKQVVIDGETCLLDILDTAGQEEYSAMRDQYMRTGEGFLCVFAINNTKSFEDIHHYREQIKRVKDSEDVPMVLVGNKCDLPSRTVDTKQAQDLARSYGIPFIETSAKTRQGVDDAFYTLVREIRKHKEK
Sequence of KRAS G13D (P62937 whole entry): as the sequence (P62937 whole entry) above
Outline: as §2

KRAS WT = KRAS WT (Homo sapiens, UniProt P01116+P62937); test: as above; format: biochemical; details: KRAS WT; read-out: KRAS WT FRET data IC50
Sequence of KRAS WT (P01116 1-169 isoform P01116-2 limits assumed): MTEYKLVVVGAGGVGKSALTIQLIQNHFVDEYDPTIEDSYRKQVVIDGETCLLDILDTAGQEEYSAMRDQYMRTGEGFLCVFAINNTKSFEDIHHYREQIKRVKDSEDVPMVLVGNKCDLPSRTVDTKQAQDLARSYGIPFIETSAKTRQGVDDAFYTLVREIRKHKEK
Sequence of KRAS WT (P62937 whole entry): as the sequence (P62937 whole entry) above
Outline: as §2

NRAS G12C = NRAS G12C (Homo sapiens, UniProt P01111+P62937, G12C); test: as above; format: biochemical; details: NRAS G12C; read-out: NRAS G12C FRET data IC50
Sequence of NRAS G12C (P01111 whole entry G12C): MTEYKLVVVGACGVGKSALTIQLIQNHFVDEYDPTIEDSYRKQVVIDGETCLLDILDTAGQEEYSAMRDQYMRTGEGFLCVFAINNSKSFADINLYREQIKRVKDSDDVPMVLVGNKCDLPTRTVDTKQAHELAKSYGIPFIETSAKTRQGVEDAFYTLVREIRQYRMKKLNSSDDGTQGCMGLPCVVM
Sequence of NRAS G12C (P62937 whole entry): as the sequence (P62937 whole entry) above

KRAS Q61H = KRAS Q61H (Homo sapiens, UniProt P01116+P62937, Q61H); test: as above; format: biochemical; details: KRAS Q61H; read-out: KRAS Q61H FRET data IC50
Sequence of KRAS Q61H (P01116 1-169 isoform P01116-2 Q61H limits assumed): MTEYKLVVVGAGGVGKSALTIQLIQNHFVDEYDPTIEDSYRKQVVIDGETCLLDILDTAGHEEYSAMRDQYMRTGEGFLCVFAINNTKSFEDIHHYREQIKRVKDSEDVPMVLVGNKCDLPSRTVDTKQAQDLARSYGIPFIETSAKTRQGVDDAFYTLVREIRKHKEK
Sequence of KRAS Q61H (P62937 whole entry): as the sequence (P62937 whole entry) above
Outline: (§3)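 TR-FRET in 25 mM HEPES pH 7.3, 100 mM NaCl, 5 mM MgCl2, 0.1% BSA: 25 μM Cyclophilin A, 12.5 nM His6-Ras-GMPPNP, 50 nM GST-BRAF RBD with compound (10-point 3-fold series from 30 μM), 3 h at 25° C. Anti-His Eu/anti-GST APC added, 1.5 h more; IC50 from decreased FRET ratio versus DMSO.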

NRAS Q61K = NRAS Q61K (Homo sapiens, UniProt P01111+P62937, Q61K); test: as above; format: biochemical; details: NRAS Q61K; read-out: NRAS Q61K FRET data IC50
Sequence of NRAS Q61K (P01111 whole entry Q61K): as the sequence (P01111 whole entry G12C) above, with C12G, Q61K counted along it
Sequence of NRAS Q61K (P62937 whole entry): as the sequence (P62937 whole entry) above
Outline: as §3

NRAS Q61R = NRAS Q61R (Homo sapiens, UniProt P01111+P62937, Q61R); test: as above; format: biochemical; details: NRAS Q61R; read-out: NRAS Q61R FRET data IC50
Sequence of NRAS Q61R (P01111 whole entry Q61R): as the sequence (P01111 whole entry G12C) above, with C12G, Q61R counted along it
Sequence of NRAS Q61R (P62937 whole entry): as the sequence (P62937 whole entry) above
Outline: as §3

NRAS WT = NRAS WT (Homo sapiens, UniProt P01111+P62937); test: as above; format: biochemical; details: NRAS WT; read-out: NRAS WT FRET data IC50
Sequence of NRAS WT (P01111 whole entry): as the sequence (P01111 whole entry G12C) above, with C12G counted along it
Sequence of NRAS WT (P62937 whole entry): as the sequence (P62937 whole entry) above
Outline: as §3

| Compound | IC50 (Capan-1 (K-Ras G12V)) [µM] | IC50 (NCI-H358 (K-Ras G12C)) [µM] | IC50 (KRAS G12C) [µM] | IC50 (KRAS G12D) [µM] | IC50 (KRAS G12S) [µM] | IC50 (KRAS G12V) [µM] | IC50 (KRAS G13C) [µM] | IC50 (KRAS G13D) [µM] | IC50 (KRAS WT) [µM] | IC50 (NRAS G12C) [µM] | IC50 (KRAS Q61H) [µM] | IC50 (NRAS Q61K) [µM] | IC50 (NRAS Q61R) [µM] | IC50 (NRAS WT) [µM] |
| --- | --- | --- | --- | --- | --- | --- | --- | --- | --- | --- | --- | --- | --- | --- |
| CCn1c(-c2cccnc2[C@H](C)OC)c2c3cc(ccc31)-c1csc(n1)C[C@H](NC(=O)[C@H](C(C)C)N(C)C(=O)N1CCOCC1)C(=O)N1CCC[C@H](N1)C(=O)OCC(C)(C)C2 (atropisomer, axis not shown) [Example A372] | 0.01 to 0.1 | < 0.01 | 0.01 to 0.1 | 0.1 to 1 | 0.1 to 1 | 0.1 to 1 | 0.1 to 1 | 0.1 to 1 | 0.01 to 0.1 | 0.01 to 0.1 | 0.01 to 0.1 | 0.01 to 0.1 | 0.01 to 0.1 | 0.01 to 0.1 |
| CCn1c(-c2cccnc2[C@H](C)OC)c2c3cc(ccc31)-c1csc(n1)C[C@H](NC(=O)[C@H](C(C)C)N(C)C(=O)N1CCN3CCOC[C@H]3C1)C(=O)N1CCC[C@H](N1)C(=O)OCC(C)(C)C2 [Example A548] | 0.01 to 0.1 | 0.01 to 0.1 | 0.1 to 1 | 1 to 10 | 1 to 10 | 0.1 to 1 | 0.1 to 1 | 1 to 10 | 0.1 to 1 | 0.1 to 1 | 0.1 to 1 | 0.1 to 1 | 0.1 to 1 | 0.1 to 1 |
| CCn1c(-c2cccnc2[C@H](C)OC)c2c3cc(ccc31)-c1csc(n1)C[C@H](NC(=O)C1CCC1)C(=O)N1CCC[C@H](N1)C(=O)OCC(C)(C)C2 [Example A369] | 0.1 to 1 | 0.1 to 1 | 0.1 to 1 | 1 to 10 | 0.1 to 1 | 0.1 to 1 | 0.1 to 1 | 0.1 to 1 | 0.1 to 1 | 0.1 to 1 | 0.1 to 1 | 0.1 to 1 | 0.1 to 1 | 0.1 to 1 |
| CCn1c(-c2cccnc2[C@H](C)OC)c2c3cc(ccc31)-c1csc(n1)C[C@H](NC(=O)[C@H](C(C)C)N(C)C(=O)N1CC([C@H](C)NC)C1)C(=O)N1CCC[C@H](N1)C(=O)OCC(C)(C)C2 [Example A535] | 0.1 to 1 | 0.1 to 1 | 0.1 to 1 | 1 to 10 | 0.1 to 1 | 0.1 to 1 | 0.1 to 1 | 0.1 to 1 | 0.1 to 1 | 0.1 to 1 | 0.1 to 1 | 0.1 to 1 | 0.1 to 1 | 0.1 to 1 |
| CCn1c(-c2cccnc2[C@H](C)OC)c2c3cc(ccc31)-c1csc(n1)C[C@H](NC(=O)[C@H](C(C)C)N(C)C(=O)N1[C@@H](C)CN(C)C[C@@H]1C)C(=O)N1CCC[C@H](N1)C(=O)OCC(C)(C)C2 [Example A609] | 0.1 to 1 | 1 to 10 | 1 to 10 | 1 to 10 | 1 to 10 | 1 to 10 | 1 to 10 | 1 to 10 | 1 to 10 | 0.1 to 1 | 0.1 to 1 | 0.1 to 1 | 0.1 to 1 | 1 to 10 |
| CCn1c(-c2cccnc2[C@H](C)OC)c2c3cc(ccc31)-c1csc(n1)C[C@H](NC(=O)[C@H](C(C)C)N(C)C(=O)N1CC3(CCN(C)CC3)C1)C(=O)N1CCC[C@H](N1)C(=O)OCC(C)(C)C2 [Example A513] | 0.01 to 0.1 | 0.01 to 0.1 | 0.1 to 1 | 1 to 10 | 0.1 to 1 | 0.1 to 1 | 0.1 to 1 | 0.1 to 1 | 0.1 to 1 | 0.1 to 1 | 0.1 to 1 | 0.1 to 1 | 0.1 to 1 | 0.1 to 1 |
| CCn1c(-c2cccnc2[C@H](C)OC)c2c3cc(ccc31)-c1csc(n1)C[C@H](NC(=O)[C@H](C(C)C)N(C)C(=O)N1CCC3(CCN(C)CC3)C1)C(=O)N1CCC[C@H](N1)C(=O)OCC(C)(C)C2 (atropisomer, axis not shown) [Example A565] | 0.01 to 0.1 | 0.01 to 0.1 | 0.01 to 0.1 | 0.1 to 1 | 0.01 to 0.1 | 0.1 to 1 | 0.1 to 1 | 0.1 to 1 | 0.01 to 0.1 | 0.01 to 0.1 | 0.01 to 0.1 | 0.01 to 0.1 | 0.01 to 0.1 | 0.01 to 0.1 |
| CCn1c(-c2cccnc2[C@H](C)OC)c2c3cc(ccc31)-c1csc(n1)C[C@H](NC(=O)[C@H](C(C)C)N(C)C(=O)N1CCN(C(=O)CO)CC1)C(=O)N1CCC[C@H](N1)C(=O)OCC(C)(C)C2 (atropisomer, axis not shown) [Example A306] | 0.01 to 0.1 | < 0.01 | 0.01 to 0.1 | 0.1 to 1 | 0.1 to 1 | 0.1 to 1 | 0.1 to 1 | 0.1 to 1 | 0.01 to 0.1 | 0.01 to 0.1 | 0.01 to 0.1 | 0.01 to 0.1 | 0.01 to 0.1 | 0.01 to 0.1 |
| CCn1c(-c2cccnc2[C@H](C)OC)c2c3cc(ccc31)-c1csc(n1)C[C@H](NC(=O)[C@H](C(C)C)N(C)C(=O)N1CCN(C)CC1)C(=O)N1CCC[C@H](N1)C(=O)OCC(C)(C)C2 [Example A570] | 0.01 to 0.1 | 0.01 to 0.1 | 0.1 to 1 | 1 to 10 | 0.1 to 1 | 0.1 to 1 | 0.1 to 1 | 0.1 to 1 | 0.1 to 1 | 0.1 to 1 | 0.1 to 1 | 0.1 to 1 | 0.1 to 1 | 0.1 to 1 |
| CCn1c(-c2cccnc2[C@H](C)OC)c2c3cc(ccc31)-c1csc(n1)C[C@H](NC(=O)[C@H](C(C)C)N(C)C(=O)N1CCN(C(=O)[C@H]3CCCN3C)CC1)C(=O)N1CCC[C@H](N1)C(=O)OCC(C)(C)C2 (atropisomer, axis not shown) [Example A595] | 0.1 to 1 | 0.01 to 0.1 | 0.01 to 0.1 | 0.1 to 1 | 0.1 to 1 | 0.1 to 1 | 0.1 to 1 | 0.1 to 1 | 0.1 to 1 | 0.01 to 0.1 | 0.01 to 0.1 | 0.01 to 0.1 | 0.1 to 1 | 0.1 to 1 |
| CCn1c(-c2cccnc2[C@H](C)OC)c2c3cc(ccc31)-c1csc(n1)C[C@H](NC(=O)[C@H](C(C)C)N(C)C(=O)N1CCN(C(=O)CCN(C)C)CC1)C(=O)N1CCC[C@H](N1)C(=O)OCC(C)(C)C2 [Example A459] | 0.1 to 1 | 0.01 to 0.1 | 0.01 to 0.1 | 0.1 to 1 | 0.01 to 0.1 | 0.1 to 1 | 0.01 to 0.1 | 0.01 to 0.1 | 0.01 to 0.1 | 0.01 to 0.1 | 0.01 to 0.1 | 0.01 to 0.1 | 0.01 to 0.1 | 0.01 to 0.1 |
| CCn1c(-c2cccnc2[C@H](C)OC)c2c3cc(ccc31)-c1csc(n1)C[C@H](NC(=O)C1(F)COC1)C(=O)N1CCC[C@H](N1)C(=O)OCC(C)(C)C2 [Example A320] | 0.1 to 1 | 1 to 10 | 0.1 to 1 | 1 to 10 | 0.1 to 1 | 0.1 to 1 | 0.1 to 1 | 1 to 10 | 0.1 to 1 | 0.1 to 1 | 0.1 to 1 | 0.1 to 1 | 1 to 10 | 0.1 to 1 |
